Source: patent publication US20230201174A1, “COMBINATION OF FINERENONE AND A SGLT2 INHIBITOR FOR THE TREATMENT AND/OR PREVENTION OF CARDIOVASCULAR AND/OR RENAL DISEASES” (BAYER AKTIENGESELLSCHAFT, priority 2020, published 2023)

Experiments:
[1] = tested on: Wistar rats with activated renin-angiotensin-aldosterone system; experiment: In vivo assay for detecting natriuretic activity in conscious rats with activated RAAS; set-up: species or system rat; details: for Urinary Glucose concentration / Urinary K+ concentration / Urinary Volume/ body weight / Urinary Na+ concentration: 24 h urine, mean ± SEM
Description: Wistar rats (ca. 250-500 g body weight) were kept with free access to feed (Altromin) and drinking water. […] This sodium-reduced feed causes an activation of the RAAS in the animals during the 3 days run-in phase and therefore mimics a neuroendocrine activation which is characteristic for cardiorenal diseases. […] At the start of the test, the substance to be tested was administered by means of gavage in a volume of 2-3 ml/kg of body weight of a suitable solvent PEG400). Control animals received only solvent (‘S’ or solvent in table 2 below). Controls and substance tests were carried out in parallel on the same day. Control groups and substance-dose groups each consisted of 6 to 10 animals. During the test, the urine excreted by the animals was continuously collected in a receiver on the base of the cage.
In this comparison, eight different administrations were performed (cf. groups A to H):
Group A received the solvent (PEG400) only. This group serves as control group.
Groups B, C and D received three increasing dosages of empagliflozin (SGLT2 inhibitor) only. It serves to detect the effects of the monotherapy with SGLT2 inhibitor.
Group E received a finerenone only. It serves to detect the effect of the monotherapy with finerenone.
Groups F, G and H received finerenone and the three doses of SGLT2 inhibitor in combination, respectively. It serves to detect the effect of the combined therapy with finerenone and empagliflozin (SGLT2 inhibitor) (combination according to the invention).
(§1) After the treatment, the urinary volume, urinary glucose, urinary sodium and potassium concentrations were measured.

[2] = tested on: Zucker diabetic fatty (ZDF) rats; experiment: In vivo assay for detecting natriuretic activity in chronically treated Zucker diabetic fatty rats; set-up: species or system rat; details: for Urinary Glucose concentration / Urinary K+ concentration / Urinary Na+ concentration / Urinary Volume/ body weight: Table 3, 24 h urine, mean ± SEM; for Urinary Glucose concentration / Urinary K+ concentration / Urinary Na+ concentration / Urinary Volume/ body weight / urinary sodium excretion higher in comparison to solvent control group A: ZDF rats treated 9 weeks; for influence on urinary glucose vs solvent, in words / influence on urinary potassium vs solvent, in words / influence on urinary sodium vs solvent, in words / influence on urinary volume vs solvent, in words: ZDF rats, chronic monotherapy 3 and 10 mg/kg/day, 9 weeks
Text: The Zucker diabetic fatty (ZDF) rat has a missense mutation in the gene coding the leptin receptor (fa/fa) and spontaneously develops insulin resistance, type 2 diabetes mellitus (T2DM), hyperlipidemia, moderate hypertension, and obesity, as well as progressive renal injury. Male homozygous animals develop diabetes mellitus from week 7 to 19 which is reflected in marked hyperglycemia. In addition to diabetic cardiac lesions (e.g. hypertrophy), renal pathology develops with proteinuria, mesangial expansion, macrophage infiltration, and interstitial fibrosis. Heterozygous animals are useful non-diabetic control animals since they develop neither obesity nor insulin resistance.
Male 6-7 weeks old obese (fa/fa) Zucker rats (Charles River) were placed on a high energy diet (Purina Rodent LabDiet 5008, PMI Nutrition. Richmond. Ind.) and were randomized to treatment groups or solvent group when the animals were hyperglycemic. Rats (n=14-16/group) received either solvent [ethanol/Solutol/H2O (10/40/50)] or test compounds in solvent once daily applied to (fa/fa) animals for 4 to 12 weeks.
During the experiment, the systolic blood pressure (determined by tail cuff), urine parameters (e.g. protein, glucose, electrolytes, creatinine, urea and uric acid) and blood plasma parameters (e.g. electrolytes, glucose, creatinine, urea and uric acid) were determined at regular intervals.
Histopathology is performed with cardiac and renal tissue from animals of treatment groups and placebo groups.
In this comparison, six different administrations were performed:
Group A received the solvent [ethanol/Solutol/H2O (10/40/50)] only. This group serves as control group.
Groups B and C received two increasing dosages of empagliflozin (SGLT2 inhibitor) only. It serves to detect the effects of the monotherapy with empagliflozin (SGLT2 inhibitor).
Groups D and E received increasing dosages of finerenone only. It serves to detect the effect of the monotherapy with finerenone.
Group F received a combination of the low dosages of empagliflozin (SGLT2 inhibitor) and finerenone, respectively. It serves to detect the effect of the combined therapy with finerenone and empagliflozin (SGLT2 inhibitor) (combination according to the invention).
as §1

[3] = tested on: hypertensive and proteinuric L-NAME treated renin-transgenic (mRen2)27 rats; experiment: Non-diabetic cardiorenal rat model: L-NAME treated renin-transgenic (mRen2)27 rats; details: up to 7 weeks
Description: Cardiorenal morbidity and mortality was studied in hypertensive and proteinuric L-NAME (20 mg/L) treated renin-transgenic (mRen2)27 rats. […] Key outcome parameters included mortality, blood pressure, proteinuria, kidney histology and gene expression.
Female TGR(mRen2)27 renin rats aged 10 to 20 weeks are randomized to different pharmacological treatment groups and a placebo group. In addition, the nitrogen monoxide synthase inhibitor L-NAME is administered via the drinking water in a concentration of 20 to 100 mg/l. During the entire experiment, drinking water and feed are available ad libitum to the animals. The substances are administered via the feed or daily by gavage for 4-10 weeks. Animals treated in the same way but receiving either only the solvent or the feed without test substance serve as placebo group. During the experiment, the systolic blood pressure is determined at regular intervals using a tail cuff, and proteinuria (expressed as ratio of urinary protein concentration per urinary creatinine concentration) and urine electrolyte composition are determined by collecting the urine in metabolic cages, and mortality is registered on a daily base.
The urine volume per collection time was determined separately for each animal, and the concentration of urinary glucose and electrolyte ions excreted in the urine was measured by standard methods by a clinical-chemical analyzer system (ADVIA 2400, Siemens). The urine was typically collected for 24 hours in metabolic cages.

healthy volunteers = details: dose-dependently induced during the first 24 h; cited from earlier work
[4] = Table 2, monotherapy 1 mg/kg oral
[5] = Table 2, monotherapy 3 mg/kg oral
[6] = Table 2, monotherapy 10 mg/kg oral
[7] = Table 2 study, monotherapy: empagliflozin 1, 3, 10 mg/kg, finerenone 1 mg/kg
[8] = Table 4, monotherapy 1 mg/kg oral
[9] = Table 4 study, monotherapy: canagliflozin 1 and 3 mg/kg, finerenone 1 mg/kg
[10] = Table 5, monotherapy 1 mg/kg oral
[11] = Table 5 study, monotherapy: dapagliflozin 0.03 and 0.3 mg/kg, finerenone 1 mg/kg
[12] = Table 5 study, monotherapy: dapagliflozin all doses (0.03, 0.3, 3 mg/kg), finerenone 1 mg/kg
[13] = Table 5, monotherapy 0.03 mg/kg oral
[14] = Table 5, monotherapy 0.3 mg/kg oral
[15] = Table 5, monotherapy 3 mg/kg oral
[16] = Table 5 study, monotherapy 3 mg/kg

With OC[C@H]1O[C@@H](c2ccc(Cl)c(Cc3ccc(O[C@H]4CCOC4)cc3)c2)[C@H](O)[C@@H](O)[C@@H]1O [empagliflozin, (2S,3R,4R,5S,6R)-2-[4-chloro-3-[[4-[(3S)-oxolan-3-yl]oxyphenyl]methyl]phenyl]-6-(hydroxymethyl)oxane-3,4,5-triol] the “Urinary Glucose concentration” value [1, 4] was 0.34 ± 0.10 mmol, the “Urinary K+ concentration” value [1, 4] was 1.66 ± 0.11 mmol and the “Urinary Volume/ body weight” value [1, 4] was 0.0278 ± 0.00358 L/kg. For the same compound, the “Urinary Glucose concentration” value [1, 5] was 1.21 ± 0.21 mmol, the “Urinary K+ concentration” value [1, 5] was 1.74 ± 0.15 mmol and the “Urinary Na+ concentration” value [1, 5] was 0.13 ± 0.02 mmol. For the same compound, the “Urinary Volume/ body weight” value [1, 5] was 0.02296 ± 0.00275 L/kg, the “Urinary Glucose concentration” value [1, 6] was 4.26 ± 0.59 mmol and the “Urinary K+ concentration” value [1, 6] was 1.85 ± 0.11 mmol. For the same compound, the “Urinary Na+ concentration” value [1, 6] was 0.17 ± 0.03 mmol, the “Urinary Volume/ body weight” value [1, 6] was 0.02845 ± 0.00191 L/kg and the “influence on urinary glucose, in words” value [1, 7] was “dose-dependent and strong increase”. For the same compound, the “influence on urinary potassium, in words” value [1, 7] was “no influence”, the “influence on urinary sodium, in words” value [1, 7] was “no influence” and the “influence on urinary volume, in words” value [1, 7] was “no influence”. The “Urinary Glucose concentration” value ([2]; monotherapy 3 mg/kg) was 321.55 ± 22.78 mmol, the “Urinary K+ concentration” value ([2]; monotherapy 3 mg/kg) was 2.22 ± 0.13 mmol and the “Urinary Na+ concentration” value ([2]; monotherapy 3 mg/kg) was 1.47 ± 0.10 mmol. For the same compound, the “Urinary Volume/ body weight” value ([2]; monotherapy 3 mg/kg) was 0.09998 ± 0.00712 L/kg, the “Urinary Glucose concentration” value ([2]; monotherapy 10 mg/kg) was 317.16 ± 25.10 mmol and the “Urinary K+ concentration” value ([2]; monotherapy 10 mg/kg) was 2.64 ± 0.20 mmol. For the same compound, the “Urinary Na+ concentration” value ([2]; monotherapy 10 mg/kg) was 2.05 ± 0.27 mmol, the “Urinary Volume/ body weight” value ([2]; monotherapy 10 mg/kg) was 0.11038 ± 0.00455 L/kg and the “urinary sodium excretion higher in comparison to solvent control group A” value ([2]; monotherapy 3 mg/kg) was 27.2%. The “influence on urinary glucose vs solvent, in words” value [2] was “increases”, the “influence on urinary potassium vs solvent, in words” value [2] was “increases” and the “influence on urinary sodium vs solvent, in words” value [2] was “increases”. The “influence on urinary volume vs solvent, in words” value [2] was “increases”, the proteinuria reduction ([3]; 3 mg/kg once daily orally) was −38% and the proteinuria reduction ([3]; 10 mg/kg once daily orally) was −64%. The “glucosuric action, in words” value ([3]; once daily orally) was “strongly glucosoric” and the “renal histology parameters / renal lesions, in words” value ([3]; once daily orally) was “comparable protection from renal lesions at higher dosages”.

For CCOc1ncc(C)c2c1[C@H](c1ccc(C#N)cc1OC)C(C(N)=O)=C(C)N2 [finerenone, (S)-4-(4-cyano-2-methoxyphenyl)-5-ethoxy-2,8-dimethyl-1,4-dihydro-1,6-naphthyridin-3-carboxamide], the “Urinary Glucose concentration” value [1, 4] was “b.d.l”, the “Urinary K+ concentration” value [1, 4] was 1.46 ± 0.12 mmol and the “Urinary Na+ concentration” value [1, 4] was 0.43 ± 0.03 mmol. For the same compound, the “Urinary Volume/ body weight” value [1, 4] was 0.0219 ± 0.00186 L/kg, the “influence on urinary glucose, in words” value [1, 7] was “no influence” and the “influence on urinary potassium, in words” value [1, 7] was “no influence”. For the same compound, the “influence on urinary sodium, in words” value [1, 7] was “increase”, the “influence on urinary volume, in words” value [1, 7] was “no influence” and the “Urinary Glucose concentration” value [1, 8] was “b.d.l”. The “Urinary K+ concentration” value [1, 8] was 1.76 ± 0.11 mmol, the “Urinary Na+ concentration” value [1, 8] was 0.27 ± 0.06 mmol and the “Urinary Volume/ body weight” value [1, 8] was 0.02932 ± 0.00294 L/kg. The “influence on urinary potassium, in words” value [1, 9] was “no influence”, the “influence on urinary sodium, in words” value [1, 9] was “weak increase” and the “influence on urinary volume, in words” value [1, 9] was “no influence”. For the same compound, the “influence on urinary glucose, in words” value ([1]; Table 4 study, monotherapy: canagliflozin all doses (1, 3, 10 mg/kg), finerenone 1 mg/kg) was “no influence”, the “Urinary Glucose concentration” value [1, 10] was “b.d.l” and the “Urinary K+ concentration” value [1, 10] was 1.84 ± 0.10 mmol. For the same compound, the “Urinary Na+ concentration” value [1, 10] was 0.33 ± 0.43 mmol, the “Urinary Volume/ body weight” value [1, 10] was 0.02344 ± 0.00162 L/kg and the “influence on urinary potassium, in words” value [1, 11] was “no influence”. The “influence on urinary sodium, in words” value [1, 11] was “increase”, the “influence on urinary volume, in words” value [1, 11] was “no influence” and the “influence on urinary glucose, in words” value [1, 12] was “no influence”. For the same compound, the “Urinary Glucose concentration” value ([2]; monotherapy 3 mg/kg) was 291.98 ± 19.11 mmol, the “Urinary K+ concentration” value ([2]; monotherapy 3 mg/kg) was 1.94 ± 0.14 mmol and the “Urinary Na+ concentration” value ([2]; monotherapy 3 mg/kg) was 1.39 ± 0.12 mmol. The “Urinary Volume/ body weight” value ([2]; monotherapy 3 mg/kg) was 0.08184 ± 0.01199 L/kg, the “Urinary Glucose concentration” value ([2]; monotherapy 10 mg/kg) was 272.62 ± 22.51 mmol and the “Urinary K+ concentration” value ([2]; monotherapy 10 mg/kg) was 1.75 ± 0.06 mmol. The “Urinary Na+ concentration” value ([2]; monotherapy 10 mg/kg) was 1.30 ± 0.08 mmol, the “Urinary Volume/ body weight” value ([2]; monotherapy 10 mg/kg) was 0.05682 ± 0.00259 L/kg and the “urinary sodium excretion higher in comparison to solvent control group A” value ([2]; monotherapy 3 mg/kg) was 20.1%. The “influence on urinary glucose vs solvent, in words” value [2] was “no influence”, the “influence on urinary potassium vs solvent, in words” value [2] was “no influence” and the “influence on urinary sodium vs solvent, in words” value [2] was “no influence”. The “influence on urinary volume vs solvent, in words” value [2] was “no influence”, the proteinuria reduction ([3]; 1 mg/kg once daily orally) was −27% and the proteinuria reduction ([3]; 3 mg/kg once daily orally) was −87%. For the same compound, the “renal histology parameters / renal lesions, in words” value ([3]; once daily orally) was “comparable protection from renal lesions at higher dosages” and the “systolic blood pressure, in words” value ([3]; once daily orally) was “significantly decreased”.

With CCOc1ccc(Cc2cc([C@@H]3O[C@H](CO)[C@@H](O)[C@H](O)[C@H]3O)ccc2Cl)cc1 [dapagliflozin, (2S,3R,4R,5S,6R)-2-[4-chloro-3-[(4-ethoxyphenyl)methyl]phenyl]-6-(hydroxymethyl)oxane-3,4,5-triol] the “Urinary Glucose concentration” value [1, 13] was 0.72 ± 0.18 mmol, the “Urinary K+ concentration” value [1, 13] was 2.21 ± 0.16 mmol and the “Urinary Na+ concentration” value [1, 13] was 0.19 ± 0.05 mmol. The “Urinary Volume/ body weight” value [1, 13] was 0.03917 ± 0.00408 L/kg, the “Urinary Glucose concentration” value [1, 14] was 5.26 ± 0.29 mmol and the “Urinary K+ concentration” value [1, 14] was 2.43 ± 0.07 mmol. For the same compound, the “Urinary Na+ concentration” value [1, 14] was 0.19 ± 0.04 mmol, the “Urinary Volume/ body weight” value [1, 14] was 0.03884 ± 0.00394 L/kg and the “Urinary Glucose concentration” value [1, 15] was 9.71 ± 0.36 mmol. The “Urinary K+ concentration” value [1, 15] was 2.34 ± 0.10 mmol, the “Urinary Na+ concentration” value [1, 15] was 0.29 ± 0.05 mmol and the “Urinary Volume/ body weight” value [1, 15] was 0.04872 ± 0.00153 L/kg. The “influence on urinary sodium, in words” value [1, 16] was “increase”, the “influence on urinary volume, in words” value [1, 16] was “increase” and the “influence on urinary potassium, in words” value [1, 11] was “no influence”. The “influence on urinary sodium, in words” value [1, 11] was “no influence”, the “influence on urinary volume, in words” value [1, 11] was “no influence” and the “influence on urinary glucose, in words” value [1, 12] was “strong increase”. For the same compound, the “natriuresis, in words” value (healthy volunteers) was “returned to baseline after 13 days of intervention”.
